From US11000033B2, “Ketone or oxime compound, and herbicide” (NISSAN CHEMICAL CORPORATION, priority 2014, dated 2021)

Assays:
Assay type in all cases: in vivo
[1] = system: Echinochloa oryzacola Vasing.; assay: Test Example 1: herbicidal activity, application before weed generation in submerged conditions (symbol A)
Outline: (§1)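 Scores run 0 to 5 by herbicidal ratio, with 5 meaning 90% or more and 0 meaning 5% or lower, read 3 weeks after treatment. Compound was applied as a diluted emulsion to the water surface of submerged alluvial-soil pots on the day weed seeds were sown.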

Scirpus juncoides [2] = assay: Test Example 1: herbicidal activity, application before weed generation in submerged conditions (symbol B)
Outline: as §1

transplanted rice plant = assay: Test Example 1: effect on crop, application before weed generation in submerged conditions (symbol a)
Outline: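 Alluvial soil pots flooded to 4 cm water, sown with Echinochloa oryzacola, Scirpus juncoides and Monochoria vaginalis, then transplanted with 2.5 leaf stage rice seedlings; pre-emergence application. Greenhouse 25° C. to 30° C.; scored 0–5 by herbicidal ratio 3 weeks after application.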

[3] = system: Echinochloa oryzacola Vasing.; assay: Test Example 2: herbicidal activity, application during weed generation in submerged conditions (symbol A); settings: Table 23, grade 0-5 by criteria of Test Example 1
Outline: (§2)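 Seeds sown in flooded alluvial soil (4 cm water) were grown in a 25-30° C greenhouse. At the one- to two-leaf stage, diluted emulsion of compound was applied to the water surface at a predetermined rate. Effect was scored 3 weeks later.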

Scirpus juncoides [4] = assay: Test Example 2: herbicidal activity, application during weed generation in submerged conditions (symbol B); settings: Table 23, grade 0-5 by criteria of Test Example 1
Outline: as §2

Cyperus difformis = assay: Test Example 3: herbicidal effect by foliage application, Wagner pot (symbol E); settings: for E herbicidal effect grade: Table 24
Outline: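 Plants sown in submerged alluvial soil (water depth 0.1–0.5 cm) in a 25–30 °C greenhouse and grown 14 days. An emulsion of the compound diluted in water to a set herbicide amount was sprayed uniformly on foliage. Effect on each plant scored 3 weeks after application.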

Setaria viridis = assay: Test Example 4: herbicidal effect by soil treatment (symbol G); settings: for Herbicidal effect grade, G: Setaria viridis: application herbicide amount 320 g/ha
Outline: (§3)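 Seeds were sown in sterilized diluvial soil, covered with about 1.5 cm of soil, and the soil surface was sprayed with a water-diluted emulsion of the compound at a predetermined rate. Plants grew in a greenhouse at 25° C. to 30° C.; effects were scored visually 3 weeks after application.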

Apera spica-venti = assay: Test Example 4: herbicidal effect by soil treatment (symbol L); settings: for Herbicidal effect grade, L: Apera spica-venti: application herbicide amount 320 g/ha
Outline: as §3

Amaranthus retroflexus [5] = assay: Test Example 4: herbicidal effect by soil treatment (symbol N); settings: for Herbicidal effect grade, N: Amaranthus retroflexus: application herbicide amount 320 g/ha
Outline: as §3

wheat = assay: Test Example 4: effect on crop by soil treatment (symbol e); settings: for Effect on crop grade, e: wheat: application herbicide amount 320 g/ha
Outline: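 Greenhouse culture at 25° C. to 30° C. followed sowing of seed in spots on sterilized diluvial soil with a soil cover close to 1.5 cm thick.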

[6] = system: Echinochloa crus-galli var. crus-galli; assay: Test Example 5: herbicidal effect by foliage application, plastic box (symbol H); settings: 3 weeks after application
Outline: (§4)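 Sowing in sterilized diluvial soil, 14 days' greenhouse growth at 25° C. to 30° C., then uniform small-sprayer foliar application of aqueous emulsion dilution; plants scored three weeks afterwards.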

Alopecurus myosuroides = assay: Test Example 5: herbicidal effect by foliage application, plastic box (symbol J); settings: 3 weeks after application
Outline: as §4

Amaranthus retroflexus [7] = assay: Test Example 5: herbicidal effect by foliage application, plastic box (symbol N); settings: 3 weeks after application
Outline: as §4

[8] = application herbicide amount 320 g/ha
[9] = application herbicide amount 102 g/ha
[10] = application herbicide amount 269 g/ha

For `CON=C(C)CC1CC(OC(=O)CN(C)C(=O)c2ccccc2)=C(c2c(C)cc(C)cc2C)C1=O` (centres unmarked) [1-139], the “Herbicidal effect grade, A: Echinochloa oryzacola Vasing.” value [1, 8] was 5 (Herbicidal ratio of 90% or more (almost completely withered)), the “Herbicidal effect grade, B: Scirpus juncoides” value (“Herbicidal effect grade, B” below) (Scirpus juncoides [2]; [8]) was 4 (Herbicidal ratio of 70% or higher and lower than 90%) and the “Effect grade on crop, a: transplanted rice plant” value (transplanted rice plant; [8]) was 5 (Herbicidal ratio of 90% or more (almost completely withered)). For the same compound, the “Herbicidal effect grade, A: Echinochloa oryzacola Vasing.” value [3, 8] was 5 (Herbicidal ratio of 90% or more (almost completely withered)), the “Herbicidal effect grade, B” value (Scirpus juncoides [4]; [8]) was 4 (Herbicidal ratio of 70% or higher and lower than 90%) and the “herbicidal effect on E, grade 0-5” value (Cyperus difformis; [8]) was 5 (Herbicidal ratio of 90% or more (almost completely withered)). For the same compound, the “G: Setaria viridis, herbicidal effect grade” value (Setaria viridis; 320 g/ha) was 5 (Herbicidal ratio of 90% or more (almost completely withered)), the “L: Apera spica-venti, herbicidal effect grade” value (Apera spica-venti; 320 g/ha) was 5 (Herbicidal ratio of 90% or more (almost completely withered)) and the “N: Amaranthus retroflexus, herbicidal effect grade” value (Amaranthus retroflexus [5]; 320 g/ha) was 3 (Herbicidal ratio of 40% or higher and lower than 70%). The “e: wheat, effect grade on crop” value (wheat; 320 g/ha) was 3 (Herbicidal ratio of 40% or higher and lower than 70%), the “H: Echinochloa crus-galli var. crus-galli, herbicidal effect (criteria 0-5)” value ([6]; 320 g/ha) was 5 (Herbicidal ratio of 90% or more (almost completely withered)) and the “J: Alopecurus myosuroides, herbicidal effect (criteria 0-5)” value (Alopecurus myosuroides; 320 g/ha) was 5 (Herbicidal ratio of 90% or more (almost completely withered)). The “N: Amaranthus retroflexus, herbicidal effect (criteria 0-5)” value (Amaranthus retroflexus [7]; 320 g/ha) was 0 (Herbicidal ratio of 5% or lower (almost no effect)).

With `CC(=O)CC1CC(O)=C(c2c(C)cc(C)cc2C)C1=O` (centres unmarked) [2-001, 3-hydroxy-2-mesityl-5-(2-oxopropyl)cyclopent-2-enone] the “Herbicidal effect grade, A: Echinochloa oryzacola Vasing.” value [1, 9] was 4 (Herbicidal ratio of 70% or higher and lower than 90%), the “Herbicidal effect grade, B” value (Scirpus juncoides [2]; [9]) was 0 (Herbicidal ratio of 5% or lower (almost no effect)) and the “Effect grade on crop, a: transplanted rice plant” value (transplanted rice plant; [9]) was 4 (Herbicidal ratio of 70% or higher and lower than 90%). For the same compound, the “Herbicidal effect grade, A: Echinochloa oryzacola Vasing.” value [3, 9] was 0 (Herbicidal ratio of 5% or lower (almost no effect)), the “Herbicidal effect grade, B” value (Scirpus juncoides [4]; [9]) was 0 (Herbicidal ratio of 5% or lower (almost no effect)) and the “herbicidal effect on E, grade 0-5” value (Cyperus difformis; [9]) was 5 (Herbicidal ratio of 90% or more (almost completely withered)). For the same compound, the “G: Setaria viridis, herbicidal effect grade” value (Setaria viridis; 102 g/ha) was 4 (Herbicidal ratio of 70% or higher and lower than 90%), the “L: Apera spica-venti, herbicidal effect grade” value (Apera spica-venti; 102 g/ha) was 2 (Herbicidal ratio of 20% or higher and lower than 40%) and the “N: Amaranthus retroflexus, herbicidal effect grade” value (Amaranthus retroflexus [5]; 102 g/ha) was 1 (Herbicidal ratio of 5% or higher and lower than 20%). For the same compound, the “e: wheat, effect grade on crop” value (wheat; 102 g/ha) was 0 (Herbicidal ratio of 5% or lower (almost no effect)), the “H: Echinochloa crus-galli var. crus-galli, herbicidal effect grade” value ([6]; 102 g/ha) was 5 (Herbicidal ratio of 90% or more (almost completely withered)) and the “J: Alopecurus myosuroides, herbicidal effect grade” value (Alopecurus myosuroides; 102 g/ha) was 5 (Herbicidal ratio of 90% or more (almost completely withered)). The “N: Amaranthus retroflexus, herbicidal effect grade” value (Amaranthus retroflexus [7]; 102 g/ha) was 2 (Herbicidal ratio of 20% or higher and lower than 40%).

`CC(=O)C(C)C1CC(O)=C(c2c(C)cc(C)cc2C)C1=O` (centres unmarked) [2-005] was tested, and the “Herbicidal effect grade, A: Echinochloa oryzacola Vasing.” value [1, 10] was 3 (Herbicidal ratio of 40% or higher and lower than 70%), the “Herbicidal effect grade, B” value (Scirpus juncoides [2]; [10]) was 0 (Herbicidal ratio of 5% or lower (almost no effect)) and the “Effect grade on crop, a: transplanted rice plant” value (transplanted rice plant; [10]) was 4 (Herbicidal ratio of 70% or higher and lower than 90%). For the same compound, the “Herbicidal effect grade, A: Echinochloa oryzacola Vasing.” value [3, 10] was 3 (Herbicidal ratio of 40% or higher and lower than 70%), the “Herbicidal effect grade, B” value (Scirpus juncoides [4]; [10]) was 0 (Herbicidal ratio of 5% or lower (almost no effect)) and the “herbicidal effect on E, grade 0-5” value (Cyperus difformis; [10]) was 4 (Herbicidal ratio of 70% or higher and lower than 90%). For the same compound, the “G: Setaria viridis, herbicidal effect grade” value (Setaria viridis; [10]) was 4 (Herbicidal ratio of 70% or higher and lower than 90%), the “L: Apera spica-venti, herbicidal effect grade” value (Apera spica-venti; [10]) was 1 (Herbicidal ratio of 5% or higher and lower than 20%) and the “N: Amaranthus retroflexus, herbicidal effect grade” value (Amaranthus retroflexus [5]; [10]) was 0 (Herbicidal ratio of 5% or lower (almost no effect)). The “e: wheat, effect on crop grade” value (wheat; [10]) was 0 (Herbicidal ratio of 5% or lower (almost no effect)), the “H: Echinochloa crus-galli var. crus-galli, herbicidal effect grade” value ([6]; 269 g/ha) was 5 (Herbicidal ratio of 90% or more (almost completely withered)) and the “J: Alopecurus myosuroides, herbicidal effect grade” value (Alopecurus myosuroides; 269 g/ha) was 5 (Herbicidal ratio of 90% or more (almost completely withered)). For the same compound, the “N: Amaranthus retroflexus, herbicidal effect grade” value (Amaranthus retroflexus [7]; 269 g/ha) was 0 (Herbicidal ratio of 5% or lower (almost no effect)).

For `CC#Cc1cc(C)c(C2=C(O)CC(CC(=NOC)C(C)C)C2=O)c(C)c1` (centres unmarked) [9-006], the “A (Echinochloa oryzacola Vasing.) herbicidal effect grade” value [1, 8] was 5 (Herbicidal ratio of 90% or more (almost completely withered)), the “B (Scirpus juncoides) herbicidal effect grade” value (Scirpus juncoides [2]; [8]) was 4 (Herbicidal ratio of 70% or higher and lower than 90%) and the “a (transplanted rice plant) effect on crop grade” value (transplanted rice plant; [8]) was 5 (Herbicidal ratio of 90% or more (almost completely withered)). The “Herbicidal effect grade, A: Echinochloa oryzacola Vasing.” value [3, 8] was 5 (Herbicidal ratio of 90% or more (almost completely withered)), the “Herbicidal effect grade, B” value (Scirpus juncoides [4]; [8]) was 4 (Herbicidal ratio of 70% or higher and lower than 90%) and the “E herbicidal effect grade” value (Cyperus difformis; [8]) was 5 (Herbicidal ratio of 90% or more (almost completely withered)). For the same compound, the “Herbicidal effect grade, G: Setaria viridis” value (Setaria viridis) was 5 (Herbicidal ratio of 90% or more (almost completely withered)), the “Herbicidal effect grade, L: Apera spica-venti” value (Apera spica-venti) was 5 (Herbicidal ratio of 90% or more (almost completely withered)) and the “Herbicidal effect grade, N: Amaranthus retroflexus” value (Amaranthus retroflexus [5]) was 2 (Herbicidal ratio of 20% or higher and lower than 40%). The “Effect on crop grade, e: wheat” value (wheat) was 5 (Herbicidal ratio of 90% or more (almost completely withered)), the “H: Echinochloa crus-galli var. crus-galli, herbicidal effect grade” value ([6]; 320 g/ha) was 5 (Herbicidal ratio of 90% or more (almost completely withered)) and the “J: Alopecurus myosuroides, herbicidal effect grade” value (Alopecurus myosuroides; 320 g/ha) was 5 (Herbicidal ratio of 90% or more (almost completely withered)). The “N: Amaranthus retroflexus, herbicidal effect grade” value (Amaranthus retroflexus [7]; 320 g/ha) was 0 (Herbicidal ratio of 5% or lower (almost no effect)).

In the case of `CON=C(CC1CC(O)=C(c2c(C)cc(-n3cc(Cl)cn3)cc2C)C1=O)C1CC1` (centres unmarked) [9-007], the “A (Echinochloa oryzacola Vasing.) herbicidal effect grade” value [1, 8] is reported as 5 (Herbicidal ratio of 90% or more (almost completely withered)), the “B (Scirpus juncoides) herbicidal effect grade” value (Scirpus juncoides [2]; [8]) is reported as 4 (Herbicidal ratio of 70% or higher and lower than 90%) and the “a (transplanted rice plant) effect on crop grade” value (transplanted rice plant; [8]) is reported as 5 (Herbicidal ratio of 90% or more (almost completely withered)). For the same compound, the “Herbicidal effect grade, A: Echinochloa oryzacola Vasing.” value [3, 8] was 5 (Herbicidal ratio of 90% or more (almost completely withered)), the “Herbicidal effect grade, B” value (Scirpus juncoides [4]; [8]) was 4 (Herbicidal ratio of 70% or higher and lower than 90%) and the “E herbicidal effect grade” value (Cyperus difformis; [8]) was 5 (Herbicidal ratio of 90% or more (almost completely withered)). The “Herbicidal effect grade, G: Setaria viridis” value (Setaria viridis) was 5 (Herbicidal ratio of 90% or more (almost completely withered)), the “Herbicidal effect grade, L: Apera spica-venti” value (Apera spica-venti) was 5 (Herbicidal ratio of 90% or more (almost completely withered)) and the “Herbicidal effect grade, N: Amaranthus retroflexus” value (Amaranthus retroflexus [5]) was 0 (Herbicidal ratio of 5% or lower (almost no effect)). The “Effect on crop grade, e: wheat” value (wheat) was 0 (Herbicidal ratio of 5% or lower (almost no effect)), the “H: Echinochloa crus-galli var. crus-galli, herbicidal effect grade” value ([6]; 320 g/ha) was 5 (Herbicidal ratio of 90% or more (almost completely withered)) and the “J: Alopecurus myosuroides, herbicidal effect grade” value (Alopecurus myosuroides; 320 g/ha) was 5 (Herbicidal ratio of 90% or more (almost completely withered)). For the same compound, the “N: Amaranthus retroflexus, herbicidal effect grade” value (Amaranthus retroflexus [7]; 320 g/ha) was 0 (Herbicidal ratio of 5% or lower (almost no effect)).
